Experimental data published in BindingDB's records for doi:10.1021/acs.jmedchem.0c00249 (China Pharmaceutical University, 2020).

Experiments:
[1] = Inhibition of SHP2 E76K mutant in splenocytes derived from JMML patient assessed as reduction in GM-CSF induced colony formation of myeloid blast cells measured after 14 days
[2] = Inhibition of SHP2 E76K mutant in splenocytes derived from JMML patient assessed as reduction in cell proliferation in presence of GM-CSF

IC50 [1]: 7.24 µM
IC50 [2]: 3.09 µM
SMILES: Cc1cc(C)c2[nH]c3nc(SCC(=O)Nc4cccc5ccccc45)nnc3c2c1
